According to patent US20150050410A1, “COMPOUNDS, COMPOSITIONS, AND METHODS FOR MODULATING SWEET TASTE” (Chromocell Corporation, priority 2013, published 2015):

System: perception of the sweet taste of an aqueous solution of sweetener in humans
Test: Two-alternative forced choice "sip and spit" method (2AFC)
Assay type: in vivo
Method: The taste test panelists used in the Examples 1-3 were selected using a sensory acuity screening program. Candidate taste panelists were recruited, with prescreening and personal interviews, and were assessed and for their ability to detect, recognize and differentiate basic taste attributes or mixtures thereof as part of a standardized acuity test. This included basic tastes of sweet, sour, salty, bitter and umami, as well as having the capacity to focus on specific aspects of sensory character such as ranking the various tastes perceived and identifying the basic tastes presented at threshold levels.
The effect of the test compounds on the perception of the sweet taste of an aqueous solution of sweetener in humans was evaluated using a two-alternative forced choice “sip and spit” method (2AFC).
The aqueous sweetener solutions were prepared by adding, fructose, sucrose or glucose (by weight), to water to achieve the desired concentration.
Compounds were first prepared as a 500-fold concentrated stock solution in 100% ethanol. These concentrated stocks were then added to the aqueous sweetener solutions to result in a final ethanol concentration of 0.2%. The control (positive and negative) samples were also normalized to 0.2% ethanol. This level of ethanol was not seen to contribute any perceived sweetness.
The 2AFC test used for compound evaluation was a blind and randomized test where taste panelists (n=15) evaluate a pair of sweetener solutions at a time one sample contains aqueous sweetener solution plus compound (i.e. test) while the other contains aqueous sweetener solution at higher concentration without compound (i.e. positive control). Each test sample was compared against a positive control. For example, if the test sample contained 1× sweetener concentration with compound (e.g. 5% sucrose with compound), the positive control sample contained a 1.1× sweetener concentration (e.g. 5.5% sucrose without compound).
Panelists were instructed not to eat or drink (except water) for at least 1 h before the test. During the test, panelists were instructed to sip each sample, swirl it around their mouth and then expectorate. After tasting each sample in the pair, panelists were instructed to record the sample that is “sweeter” in taste. Panelists cleansed their palates by rinsing with water, eating a cracker and waiting for an interval of about 5 minutes. Each pair was tasted twice. All samples were tasted at ambient temperatures. Data were analyzed using binomial probabilities.
Approximate levels of sweetness enhancement in column 5 of Table 2 were calculated as follows:
Approximate levels of sweetness enhancement=Sweetener concentration of positive control surpassed by the test sample, divided by sweetener concentration for compound-containing sample (e.g. 1.15×=5.75% sucrose/5% sucrose).

## COc1ccc(C2CC(=O)c3c(O)cccc3O2)cc1O (racemic) [Compound 1, 5-hydroxy-2-(3-hydroxy-4-methoxyphenyl)chroman-4-one]
Test sample 4% fructose, compound 25 ppm, positive control conc. / test sample conc.
  Fold increase in perceived sweetness: >1.20X
Test sample 4% fructose, positive control fructose, compound 25 ppm
  Sweetener Concentration of positive control surpassed by test sample: > 4.8%
Test sample 5% sucrose, positive control sucrose, compound 15 ppm
  Sweetener Concentration of positive control surpassed by test sample: > 5.75%
Test sample 6.5% glucose, positive control glucose, compound 10, 25 ppm
  Sweetener Concentration of positive control surpassed by test sample: > 7.48%
